Reference: patent publication EP4548971A1, “1,4-BENZOTHIAZEPINES AND RELATED COMPOUNDS WITH CYCLOPROPANOL GROUPS AS MULTI-TARGETED DRUGS” (Georg-August-Universität Göttingen Stiftung Öffentlichen …, priority 2023, dated 2025)

Columns and labels:
Assay type in all cases: cell-based
[1] = test system: saponin-permeabilized ventricular cardiomyocytes (sp-vCM) from WT mice; assay: Ca2+ wave decay in saponin-permeabilized ventricular cardiomyocytes, WT mice; conditions: 10 µM, result in words
From the text: (§1) • Figure 1: Synthesis scheme showing the synthesis of multifunctional compounds with cyclopropanol residues based on 1,4 -benzothiazepines. The respective reaction conditions (a) to (i) are as follows: (a) Jones reagent, aceton; (b) H2SO4, EtOH; (c) EtMgBr, Ti(OiPr)4, EtzO; (d) t-BuMe2SiOSO2CF3, 2,6-lutidine, DCM; (e) Hz, Pd/C, THF; (f) Dess-Martin reagent, DCM; (g) K2CO3, 1,4-dioxane; (h) N2H4*H2O, EtOH; (i) Na(CH3COO)3BH, 1,2-dichloroethane; (j) NaH, DMF; (k) aq. HF (55%), MeCN or 1 M n-Bu4NF in THF or KF, Et3N*HCl, MeOH. m,n = 2-8. • Figure 2: Synthesis scheme showing the synthesis of multifunctional compounds with cyclopropanol residues based on the "open" analogs 1,4 -benzothiazepines (i.e. 3-[(4-methoxyphenyl)oxy]-and 3-[(4-methoxyphenylthio)]propane-1-amine derivatives). […] Values represent the mean ± S.D., *** P < 0.0005, **** P < 0.0001 vs. DMSO by unpaired t test; n = 6 - 28. • Figure 6: Time-lapse fluorescence measurements using TECAN Spark 20M plate reader with HEK293 cells expressing WT RyR2 and R-CEPIA1er indicator. […] Fluorescence ratio F/F0, where F0 - average fluorescence signal for the first 90 seconds, F- average fluorescence signal for the last 100 s, was taken for the calculations. […] Data sets were analyzed by unpaired Student's t-test. n.s. non-significant with P=0.59 for Dan, **, P<0.01 with P=0.003 for S36, and *, P<0.05 with P=0.019 for GM1869; (D, E, F) Relative changes in the decay time tau of Ca2+ transients from spontaneous Ca2+ waves (in control/drug) by Dan (D, 10µM), S36 (E, 10 µM), and GM1869 (F, 10 µM) in cardiomyocytes from WT and RyR2R2474S/+ mice. […] Rise times represent the tau values calculated by a mono-exponential fit of the Ca2+ transients from start to the peak of the signal. Ca2+ transients were recorded in control conditions and every 2 min (S36) or 4 min (GM1869) after drug application. **, P = 0.0065 for S36; ****, P = 0.000019 for GM1869, evaluated by paired Student's t-test. […] Decay times represent the tau values calculated by a mono-exponential fit of the Ca2+ transients from half maximum to baseline of the signal. […]

WT RyR2 = target: T1, WT RyR2 (Mus musculus, UniProt E9Q401); assay: Time-lapse [Ca2+]ER assay (RyR2 R-CEPIA1er assay) in HEK-293 cells; conditions: 25 µM, vs. 0.1 v/v% DMSO
T1 construct: expressed in transfected cells
Method: HEK-293 cells stably expressing R-CEPIA1er and WT RyR2 (generous gift from Takashi Murayama, Juntendo University School of Medicine, Tokyo) were cultured in Dulbecco's Modified Eagle medium (DMEM, Thermo Fisher Scientific, Darmstadt, Germany) supplemented with 10% fetal bovine serum (FBS, Thermo Fisher Scientific, Darmstadt, Germany), 0.9% Penicillin/Streptomycin (Merck KGaA, Darmstadt, Germany), 15ug/mL Blasticidine (Invivogen, Toulouse, France), 100 µg/mL Hygromycin (Merck KGaA, Darmstadt, Germany) and 400 µg/mL G418 (Thermo Fisher Scientific, Darmstadt, Germany) in a humidified 5% COz incubator at 37 °C. To induce the expression of WT RyR2 in the endoplasmic reticulum (ER), 2 µg/mL Doxycycline (Merck KGaA, Darmstadt, Germany) was added 24 h before experiments.
The fluorescent plate reader [Ca^2+]ER assay was performed according to the slightly modified protocol of Murayama & Kurebayashi [T. Murayama, N. Kurebayashi, Assays for Modulators of Ryanodine Receptor (RyR)/Ca(2+) Release Channel Activity for Drug Discovery for Skeletal Muscle and Heart Diseases. Curr. Protoc. […] After the cells were inducted with Doxycycline for 24 h, changes in ER calcium concentrations [Ca^2+]ER were measured on a multiwell plate reader TECAN Spark 20M at 37 °C. The 1000 × stock solutions of the test compounds were prepared in DMSO. Briefly, the culture medium was removed and 100 µl of Tyrode's solution containing 2 mM CaCl2 was added to the cells. The time courses were recorded in each well. Fluorescence was evoked by 560 nm excitation wavelength and collected in a bottom-read mode at 610 nm. Data was recorded every 10 s, exposure - 20 flashes, excitation bandwidth - 20 nm, emission bandwidth - 20 nm. 100 µl of 0 - 100 µM solution of test compound in Tyrode's solution containing 2 mM CaCh was injected in each well (speed 100 µl/s) at the 90 s time point. […] The 0.1 v/v% DMSO and 2 mM CaCh Tyrode's solution was used as a control.
The dose response curves were calculated using the software package GraphPad Prism version 8.3.1. (GraphPad Software, Inc.). All data are presented as mean ± S.D. in 3 independent experiments. Y=Bottom + (Top-Bottom)/(1+10^((LogEC50-X)*HillSlope)) was used where HillSlope describes the steepness of the curve, Top and Bottom are plateaus in the units of the Y axis.
The inventors measured changes in Ca^2+ levels in the endoplasmic reticulum (ER) of HEK-293 cells with inducible expression of wild-type RyR2 (WT RyR2) [T. Murayama, N. Kurebayashi, M. Ishigami-Yuasa, S. Mori, Y. Suzuki, R. Akima, H. Ogawa, J. Suzuki, K. Kanemaru, H. Oyamada, Y. Kiuchi, M. Iino, H. Kagechika, T. Sakurai, Efficient High-Throughput Screening by Endoplasmic Reticulum Ca(2+) Measurement to Identify Inhibitors of Ryanodine Receptor Ca(2+)-Release Channels. […] The cells additionally stably express the Ca^2+ fluorescence indicator R-CEPIA1er, which is a genetically encoded sensor protein of Ca^2+ in the ER ([Ca^2+]ER) [T. Murayama, N. Kurebayashi, Assays for Modulators of Ryanodine Receptor (RyR)/Ca(2+) Release Channel Activity for Drug Discovery for Skeletal Muscle and Heart Diseases. Curr. Protoc.
The fluorescence ratio F/F0 was calculated, where F0 - is the average fluorescence for the first 90 s, F - is the average fluorescence for the last 100 s, and normalized.

[2] = test system: saponin-permeabilized ventricular cardiomyocytes (sp-vCM) from RyR2R2474S/+ mice; assay: Ca2+ wave decay in saponin-permeabilized ventricular cardiomyocytes, RyR2R2474S/+ mice; conditions: 10 µM, result in words
From the text: as §1

T1 sequence (E9Q401 whole entry): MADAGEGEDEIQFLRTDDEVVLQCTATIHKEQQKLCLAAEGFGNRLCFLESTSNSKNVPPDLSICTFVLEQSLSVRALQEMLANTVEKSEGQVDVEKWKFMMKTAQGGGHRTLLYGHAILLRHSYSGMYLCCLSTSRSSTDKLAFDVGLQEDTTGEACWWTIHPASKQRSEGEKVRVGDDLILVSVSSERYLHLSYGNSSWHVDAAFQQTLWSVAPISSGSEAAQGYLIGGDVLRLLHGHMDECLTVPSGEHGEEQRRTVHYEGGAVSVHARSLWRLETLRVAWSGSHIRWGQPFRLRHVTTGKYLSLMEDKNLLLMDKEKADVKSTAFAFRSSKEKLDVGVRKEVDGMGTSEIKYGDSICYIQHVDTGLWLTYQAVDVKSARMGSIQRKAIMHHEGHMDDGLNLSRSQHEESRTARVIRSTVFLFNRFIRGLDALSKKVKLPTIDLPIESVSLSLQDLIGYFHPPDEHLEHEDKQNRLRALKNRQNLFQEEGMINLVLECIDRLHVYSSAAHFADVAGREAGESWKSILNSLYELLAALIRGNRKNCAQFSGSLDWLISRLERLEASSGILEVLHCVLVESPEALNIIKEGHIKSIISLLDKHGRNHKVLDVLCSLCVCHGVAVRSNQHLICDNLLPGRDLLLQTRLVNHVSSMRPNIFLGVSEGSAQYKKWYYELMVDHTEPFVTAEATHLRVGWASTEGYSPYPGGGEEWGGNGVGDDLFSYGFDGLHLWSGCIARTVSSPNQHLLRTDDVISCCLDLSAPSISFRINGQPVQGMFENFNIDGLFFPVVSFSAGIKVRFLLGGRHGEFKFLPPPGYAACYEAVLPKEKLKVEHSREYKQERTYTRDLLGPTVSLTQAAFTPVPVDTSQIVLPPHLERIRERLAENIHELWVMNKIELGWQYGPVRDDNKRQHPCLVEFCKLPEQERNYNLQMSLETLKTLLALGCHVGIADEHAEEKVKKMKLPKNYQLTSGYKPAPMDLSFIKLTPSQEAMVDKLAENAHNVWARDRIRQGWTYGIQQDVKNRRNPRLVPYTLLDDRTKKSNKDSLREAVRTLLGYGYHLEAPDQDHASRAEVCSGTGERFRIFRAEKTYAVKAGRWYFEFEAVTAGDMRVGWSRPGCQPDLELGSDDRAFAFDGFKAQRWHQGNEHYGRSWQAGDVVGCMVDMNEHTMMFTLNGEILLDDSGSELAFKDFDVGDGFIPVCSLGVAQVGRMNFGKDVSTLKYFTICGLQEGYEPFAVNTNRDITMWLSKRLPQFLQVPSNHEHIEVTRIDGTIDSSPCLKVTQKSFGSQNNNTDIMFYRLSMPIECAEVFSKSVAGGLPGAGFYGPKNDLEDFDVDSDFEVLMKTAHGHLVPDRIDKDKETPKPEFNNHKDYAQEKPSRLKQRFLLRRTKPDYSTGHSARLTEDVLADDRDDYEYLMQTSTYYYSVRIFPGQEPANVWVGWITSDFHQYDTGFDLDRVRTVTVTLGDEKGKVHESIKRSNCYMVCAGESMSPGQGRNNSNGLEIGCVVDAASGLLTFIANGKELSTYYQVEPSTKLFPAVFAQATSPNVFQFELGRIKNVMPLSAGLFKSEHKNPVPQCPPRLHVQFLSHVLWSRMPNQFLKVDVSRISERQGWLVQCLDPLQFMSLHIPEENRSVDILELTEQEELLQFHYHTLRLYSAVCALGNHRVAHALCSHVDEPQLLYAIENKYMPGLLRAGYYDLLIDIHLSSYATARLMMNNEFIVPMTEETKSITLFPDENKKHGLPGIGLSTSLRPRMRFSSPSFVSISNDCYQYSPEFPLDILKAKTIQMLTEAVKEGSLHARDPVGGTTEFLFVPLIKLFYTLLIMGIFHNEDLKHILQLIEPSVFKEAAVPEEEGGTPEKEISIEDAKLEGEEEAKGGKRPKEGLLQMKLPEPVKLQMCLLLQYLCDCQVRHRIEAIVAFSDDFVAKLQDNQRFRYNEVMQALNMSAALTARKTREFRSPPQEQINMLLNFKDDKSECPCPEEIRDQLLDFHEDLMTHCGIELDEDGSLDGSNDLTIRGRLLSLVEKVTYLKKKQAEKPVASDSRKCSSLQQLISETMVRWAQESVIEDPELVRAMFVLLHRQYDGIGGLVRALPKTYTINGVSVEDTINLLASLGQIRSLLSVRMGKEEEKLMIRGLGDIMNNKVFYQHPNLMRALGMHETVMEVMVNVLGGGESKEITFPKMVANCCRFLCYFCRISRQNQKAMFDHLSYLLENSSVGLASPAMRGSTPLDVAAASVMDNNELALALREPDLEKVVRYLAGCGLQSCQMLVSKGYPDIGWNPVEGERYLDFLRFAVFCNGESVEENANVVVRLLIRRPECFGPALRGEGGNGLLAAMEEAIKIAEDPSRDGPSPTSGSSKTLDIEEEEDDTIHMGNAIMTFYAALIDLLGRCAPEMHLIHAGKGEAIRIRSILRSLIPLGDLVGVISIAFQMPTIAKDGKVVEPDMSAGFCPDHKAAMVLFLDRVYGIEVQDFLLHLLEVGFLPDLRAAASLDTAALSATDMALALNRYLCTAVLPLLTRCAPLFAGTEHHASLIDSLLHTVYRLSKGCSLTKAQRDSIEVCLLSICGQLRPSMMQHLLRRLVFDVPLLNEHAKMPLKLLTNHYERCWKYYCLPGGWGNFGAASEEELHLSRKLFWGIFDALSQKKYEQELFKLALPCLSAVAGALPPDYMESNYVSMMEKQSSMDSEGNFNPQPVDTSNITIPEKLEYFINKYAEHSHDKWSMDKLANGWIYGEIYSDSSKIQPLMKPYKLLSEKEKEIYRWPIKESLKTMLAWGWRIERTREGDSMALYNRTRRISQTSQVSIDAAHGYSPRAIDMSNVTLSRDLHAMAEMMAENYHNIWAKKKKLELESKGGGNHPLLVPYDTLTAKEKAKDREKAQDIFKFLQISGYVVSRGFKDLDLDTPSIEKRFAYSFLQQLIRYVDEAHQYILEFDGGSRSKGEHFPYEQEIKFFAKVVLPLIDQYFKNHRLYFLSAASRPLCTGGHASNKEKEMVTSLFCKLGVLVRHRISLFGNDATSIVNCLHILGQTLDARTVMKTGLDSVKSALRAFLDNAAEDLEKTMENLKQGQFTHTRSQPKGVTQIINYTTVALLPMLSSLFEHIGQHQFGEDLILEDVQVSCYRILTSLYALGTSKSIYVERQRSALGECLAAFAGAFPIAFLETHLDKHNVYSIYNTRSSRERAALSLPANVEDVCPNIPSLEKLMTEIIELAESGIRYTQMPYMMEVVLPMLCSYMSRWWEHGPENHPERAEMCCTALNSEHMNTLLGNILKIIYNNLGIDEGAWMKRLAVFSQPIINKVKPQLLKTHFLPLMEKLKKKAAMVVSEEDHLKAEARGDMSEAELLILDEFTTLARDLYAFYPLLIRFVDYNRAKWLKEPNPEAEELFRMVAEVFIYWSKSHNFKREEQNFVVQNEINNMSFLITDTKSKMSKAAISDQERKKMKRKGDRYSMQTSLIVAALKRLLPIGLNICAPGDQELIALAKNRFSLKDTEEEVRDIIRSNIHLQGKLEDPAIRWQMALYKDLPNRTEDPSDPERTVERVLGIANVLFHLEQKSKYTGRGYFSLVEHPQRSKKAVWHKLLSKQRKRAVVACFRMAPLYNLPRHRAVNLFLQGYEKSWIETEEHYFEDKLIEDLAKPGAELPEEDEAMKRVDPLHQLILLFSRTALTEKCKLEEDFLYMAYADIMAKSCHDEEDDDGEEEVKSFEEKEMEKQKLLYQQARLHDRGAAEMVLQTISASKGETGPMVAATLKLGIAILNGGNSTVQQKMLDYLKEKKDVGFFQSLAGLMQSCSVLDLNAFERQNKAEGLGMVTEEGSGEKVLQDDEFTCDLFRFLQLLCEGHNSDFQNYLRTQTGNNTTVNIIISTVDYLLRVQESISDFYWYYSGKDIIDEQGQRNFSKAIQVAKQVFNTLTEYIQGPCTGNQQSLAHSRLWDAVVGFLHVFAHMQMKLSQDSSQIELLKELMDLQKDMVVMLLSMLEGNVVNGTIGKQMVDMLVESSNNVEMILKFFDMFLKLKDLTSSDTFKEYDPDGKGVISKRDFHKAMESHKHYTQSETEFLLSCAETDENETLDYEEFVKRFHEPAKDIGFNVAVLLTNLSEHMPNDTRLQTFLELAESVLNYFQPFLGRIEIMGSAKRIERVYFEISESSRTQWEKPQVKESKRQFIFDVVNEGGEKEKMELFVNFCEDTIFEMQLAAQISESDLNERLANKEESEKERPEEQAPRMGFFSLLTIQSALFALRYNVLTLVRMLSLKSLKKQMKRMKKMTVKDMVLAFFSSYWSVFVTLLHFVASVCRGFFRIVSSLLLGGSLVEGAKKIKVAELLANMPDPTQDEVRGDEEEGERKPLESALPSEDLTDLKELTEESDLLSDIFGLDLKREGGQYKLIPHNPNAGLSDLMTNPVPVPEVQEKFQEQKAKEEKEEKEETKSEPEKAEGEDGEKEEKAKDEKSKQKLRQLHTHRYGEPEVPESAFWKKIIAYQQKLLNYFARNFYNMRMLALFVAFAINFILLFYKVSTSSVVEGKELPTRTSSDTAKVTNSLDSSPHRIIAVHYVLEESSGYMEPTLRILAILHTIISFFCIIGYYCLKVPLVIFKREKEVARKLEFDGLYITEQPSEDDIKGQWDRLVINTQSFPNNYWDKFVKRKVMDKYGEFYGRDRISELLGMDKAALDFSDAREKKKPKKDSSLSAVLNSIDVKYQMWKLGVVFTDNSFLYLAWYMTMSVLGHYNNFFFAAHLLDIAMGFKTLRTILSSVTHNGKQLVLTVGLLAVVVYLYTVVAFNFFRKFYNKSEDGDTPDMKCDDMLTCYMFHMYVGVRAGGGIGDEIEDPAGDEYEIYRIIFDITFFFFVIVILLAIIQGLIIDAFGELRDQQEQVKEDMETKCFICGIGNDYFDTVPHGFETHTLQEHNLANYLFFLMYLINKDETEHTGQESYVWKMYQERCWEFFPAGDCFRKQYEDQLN

O=C1CN(/N=C/c2ccc(-c3ccc([N+](=O)[O-])cc3)o2)C(O)=N1 [dantrolene]
Relative changes in the decay time tau of Ca2+ transients from spontaneous Ca2+ waves (in control/drug) [1]: significantly above 1
effect on [Ca^2+]ER (R-CEPIA1er fluorescence), in words (WT RyR2): increase in R-CEPIA1er fluorescence
Relative changes in the decay time tau of Ca2+ transients from spontaneous Ca2+ waves (in control/drug) [2]: significantly above 1
